In patent publication US6599932B1, “Alpha, beta-unsaturated sulfones for treating proliferative disorders” (Temple University-Of The Commonwealth System of Higher …, priority 2000, dated 2003):

Legend:
Type in all cases: cell-based
Set-up in all cases: dose or concentration left out as unconfirmed
[1] = test system: breast tumor cell line BT-20; assay: Viability assay, Trypan blue exclusion, breast tumor cell line BT-20; settings: for cytotoxicity: Homo sapiens, BT-20, 96 hours, read-out: percent cell death (% Death), BT20; for percent cell death (% Death), BT20: 96 hours
Experimental: (§1) The effect of the sulfones on normal fibroblasts and on tumor cells of prostate, colon, lung and breast origin was examined utilizing the following cell lines: prostate tumor cell line DU-145; colorectal carcinoma cell line DLD-1; non-small cell lung carcinoma cell line H157; and breast tumor cell line BT-20. BT-20 is an estrogen-unresponsive cell line. NIH/3T3 and HFL are normal murine and human fibroblasts, respectively. BT-20, DLD-1 and H157 were grown in Dulbecco's modified Eagle's medium (DMEM) containing 10% fetal bovine serum supplemented with penicillin and streptomycin. DU145 was cultured in RPMI with 10% fetal bovine serum containing penicillin and streptomycin. NIH3T3 and HFL cells were grown in DMEM containing 10% calf serum supplemented with penicillin and streptomycin. All cell cultures were maintained at 37° C. in a humidified atmosphere of 5% CO2.
(§2) Cells were treated with test compound […] concentration and cell viability was determined after 96 hours by the Trypan blue exclusion method. Activity for each compound is reported as a range of cell induced death (% Death) with the lowest activity in the range of 5-10%.

[2] = test system: colorectal carcinoma cell line DLD-1; assay: Viability assay, Trypan blue exclusion, colorectal carcinoma cell line DLD-1; settings: for cytotoxicity: Homo sapiens, DLD-1, 96 hours, read-out: percent cell death (% Death), DLD-1; for percent cell death (% Death), DLD-1: 96 hours
Experimental: as §1, §2

[3] = test system: prostate tumor cell line DU-145; assay: Viability assay, Trypan blue exclusion, prostate tumor cell line DU-145; settings: for cytotoxicity: Homo sapiens, DU-145, 96 hours, read-out: percent cell death (% Death), DU145; for percent cell death (% Death), DU145: 96 hours
Experimental: as §1, §2

[4] = test system: non-small cell lung carcinoma cell line H157; assay: Viability assay, Trypan blue exclusion, non-small cell lung carcinoma cell line H157; settings: for cytotoxicity: Homo sapiens, NCI-H157, 96 hours, read-out: percent cell death (% Death), H157; for percent cell death (% Death), H157: 96 hours
Experimental: as §1, §2

Structure (SMILES): O=[N+]([O-])c1ccc(/C=C/S(=O)(=O)Cc2cccc3ccccc23)cc1 [Example 73, (E)-4-Nitrostyryl-1-(naphthylmethyl)sulfone]
- cytotoxicity [1]: 5 to 10%
- cytotoxicity [2]: 5 to 10%
- cytotoxicity [3]: 5 to 10%
- cytotoxicity [4]: 10 to 15%

Structure (SMILES): O=[N+]([O-])c1cccc(/C=C/S(=O)(=O)Cc2cccc3ccccc23)c1 [Example 72, (E)-3-Nitrostyryl-1-(naphthylmethyl)sulfone]
- cytotoxicity [1]: 5 to 10%
- cytotoxicity [3]: 5 to 10%

Structure (SMILES): O=S(=O)(/C=C/c1ccoc1)Cc1ccc(Cl)c(Cl)c1 [Example 49, (E)-3-Furanethenyl-3,4-dichlorobenzylsulfone]
- cytotoxicity [1]: 50 to 60%
- cytotoxicity [2]: 50 to 60%
- cytotoxicity [3]: > 80%
- cytotoxicity [4]: 50 to 60%

Structure (SMILES): O=S(=O)(/C=C/c1ccsc1)Cc1ccc(I)cc1 [Example 25, (E)-3-Thiopheneethenyl-4-iodobenzylsulfone]
- cytotoxicity [1]: 10 to 15%
- cytotoxicity [2]: 10 to 15%
- cytotoxicity [3]: 10 to 15%
- cytotoxicity [4]: 10 to 15%

Structure (SMILES): O=S1(=O)C=CC(/C=C/S(=O)(=O)Cc2ccc(F)cc2)=C1 [Example 33, (E)-3-Thiophene-1,1-dioxoethenyl-4-fluorobenzylsulfone]
- percent cell death (% Death), BT20 [1]: + ((+)=5-10%)
- percent cell death (% Death), DLD-1 [2]: + ((+)=5-10%)
- percent cell death (% Death), DU145 [3]: + ((+)=5-10%)
- percent cell death (% Death), H157 [4]: + ((+)=5-10%)

Structure (SMILES): O=S(=O)(/C=C/c1ccc(Br)s1)Cc1ccc(Br)cc1 [Example 18, (E)-5-Bromo-2-thiopheneethenyl4-bromobenzylsulfone]
- cytotoxicity [1]: 5 to 10%
- cytotoxicity [2]: 5 to 10%
- cytotoxicity [3]: 5 to 10%
- cytotoxicity [4]: 5 to 10%

Structure (SMILES): Cc1ccc(CS(=O)(=O)/C=C/c2ccsc2)cc1 [Example 26, (E)-3-Thiopheneethenyl-4-methylbenzylsulfone]
- cytotoxicity [1]: 5 to 10%
- cytotoxicity [2]: 5 to 10%
- cytotoxicity [3]: 5 to 10%
- cytotoxicity [4]: 5 to 10%

Structure (SMILES): N#Cc1ccc(CS(=O)(=O)/C=C/c2ccoc2)cc1 [Example 50, (E)-3-Furanethenyl-4-cyanobenzylsulfone]
- cytotoxicity [1]: 5 to 10%
- cytotoxicity [2]: 5 to 10%
- cytotoxicity [3]: 5 to 10%
- cytotoxicity [4]: 5 to 10%

Structure (SMILES): O=S(=O)(/C=C/c1ccc(Br)s1)Cc1ccc(F)cc1 [Example 16, (E)-5-Bromo-2-thiopheneethenyl-4-fluorobenzylsulfone]
- cytotoxicity [1]: 5 to 10%
- cytotoxicity [2]: 5 to 10%
- cytotoxicity [3]: 5 to 10%
- cytotoxicity [4]: 5 to 10%

Structure (SMILES): O=S(=O)(/C=C/c1ccc(Cl)cc1)Cc1cccc2ccccc12 [Example 69, (E)-4-Chlorostyryl-1-(naphthylmethyl)sulfone]
- cytotoxicity [1]: 5 to 10%
- cytotoxicity [2]: 5 to 10%
- cytotoxicity [3]: 5 to 10%
- cytotoxicity [4]: 5 to 10%

Structure (SMILES): O=S(=O)(/C=C/c1cccnc1)Cc1ccc(Cl)cc1 [Example 5, (E)-3-Pyridineethenyl-4-chlorobenzylsulfone]
- cytotoxicity [1]: 5 to 10%
- cytotoxicity [2]: 5 to 10%
- cytotoxicity [3]: 5 to 10%
- cytotoxicity [4]: 5 to 10%

Structure (SMILES): O=S(=O)(/C=C/c1cccc2ccccc12)Cc1ccc(Br)cc1 [Example 66, (E)-1-Naphthaleneethenyl-4-bromobenzylsulfone]
- cytotoxicity [1]: 10 to 15%
- cytotoxicity [2]: 10 to 15%
- cytotoxicity [3]: 10 to 15%
- cytotoxicity [4]: 10 to 15%

Structure (SMILES): O=S(=O)(/C=C/c1ccccn1)Cc1ccc(Cl)cc1 [Example 4, (E)-2-Pyridineethenyl-4-chlorobenzylsulfone]
- cytotoxicity [1]: 5 to 10%
- cytotoxicity [2]: 5 to 10%
- cytotoxicity [3]: 5 to 10%
- cytotoxicity [4]: 5 to 10%

Structure (SMILES): COc1ccc(CS(=O)(=O)/C=C/c2ccsc2)cc1 [Example 27, (E)-3-Thiopheneethenyl-4-methoxybenzylsulfone]
- cytotoxicity [1]: 50 to 60%
- cytotoxicity [2]: 50 to 60%
- cytotoxicity [3]: 50 to 60%
- cytotoxicity [4]: 50 to 60%

Structure (SMILES): O=S(=O)(/C=C/c1cc(Br)cs1)Cc1ccc(F)cc1 [Example 13, (E)-4-Bromo-2-thiopheneethenyl-4-fluorobenzylsulfone]
- cytotoxicity [1]: 5 to 10%
- cytotoxicity [2]: 5 to 10%
- cytotoxicity [3]: 5 to 10%
- cytotoxicity [4]: 5 to 10%

Structure (SMILES): O=S(=O)(/C=C/c1ccoc1)Cc1ccc(Br)cc1 [Example 43, (E)-3-Furanethenyl-4-bromobenzylsulfone]
- cytotoxicity [1]: > 80%
- cytotoxicity [2]: > 80%
- cytotoxicity [3]: > 80%
- cytotoxicity [4]: > 80%

Structure (SMILES): O=S1(=O)C=CC(/C=C/S(=O)(=O)Cc2ccc(Br)cc2)=C1 [Example 35, (E)-3-Thiophene-1,1-dioxoethenyl-4-bromobenzylsulfone]
- percent cell death (% Death), BT20 [1]: + ((+)=5-10%)
- percent cell death (% Death), DLD-1 [2]: + ((+)=5-10%)
- percent cell death (% Death), DU145 [3]: + ((+)=5-10%)
- percent cell death (% Death), H157 [4]: + ((+)=5-10%)

Structure (SMILES): O=S(=O)(/C=C/c1ccc(Br)s1)Cc1ccc(Cl)cc1 [Example 17, (E)-5-Bromo-2-thiopheneethenyl-4-chlorobenzylsulfone]
- cytotoxicity [1]: 5 to 10%
- cytotoxicity [2]: 5 to 10%
- cytotoxicity [3]: 5 to 10%
- cytotoxicity [4]: 5 to 10%

Structure (SMILES): O=S1(=O)C=CC(/C=C/S(=O)(=O)Cc2ccc(Cl)cc2)=C1 [Example 34, (E)-3-Thiophene-1,1-dioxoethenyl-4chlorobenzylsulfone]
- percent cell death (% Death), BT20 [1]: + ((+)=5-10%)
- percent cell death (% Death), DLD-1 [2]: + ((+)=5-10%)
- percent cell death (% Death), DU145 [3]: + ((+)=5-10%)
- percent cell death (% Death), H157 [4]: + ((+)=5-10%)

Structure (SMILES): O=S1(=O)C=CC(/C=C/S(=O)(=O)Cc2ccc(Cl)cc2Cl)=C1 [Example 37, (E)-3-Thiophene-1,1-dioxoethenyl-2,4-dichlorobenzylsulfone]
- percent cell death (% Death), BT20 [1]: ++ ((++)=10-15%)
- percent cell death (% Death), DLD-1 [2]: ++ ((++)=10-15%)
- percent cell death (% Death), DU145 [3]: ++ ((++)=10-15%)
- percent cell death (% Death), H157 [4]: ++ ((++)=10-15%)

Structure (SMILES): O=S(=O)(/C=C/c1ccoc1)Cc1ccc(C(F)(F)F)cc1 [Example 47, (E)-3-Furanethenyl-4-trifluoromethylbenzylsulfone]
- percent cell death (% Death), BT20 [1]: ++++ ((++++)=50-60%)
- percent cell death (% Death), DLD-1 [2]: ++++ ((++++)=50-60%)
- percent cell death (% Death), DU145 [3]: ++++ ((++++)=50-60%)
- percent cell death (% Death), H157 [4]: ++++ ((++++)=50-60%)

Structure (SMILES): O=S(=O)(/C=C/c1ccsc1)Cc1ccc(Cl)cc1 [Example 23, (E)-3-Thiopheneethenyl-4-chlorobenzylsulfone]
- cytotoxicity [1]: 40 to 50%
- cytotoxicity [2]: 40 to 50%
- cytotoxicity [3]: 40 to 50%
- cytotoxicity [4]: 40 to 50%

Structure (SMILES): O=S(=O)(/C=C/c1cccs1)Cc1ccc(Br)cc1 [Example 12, (E)-2-Thiopheneethenyl-4-bromobenzylsulfone]
- cytotoxicity [1]: 5 to 10%
- cytotoxicity [2]: 5 to 10%
- cytotoxicity [3]: 5 to 10%
- cytotoxicity [4]: 5 to 10%

Structure (SMILES): O=S(=O)(/C=C/c1c2ccccc2cc2ccccc12)Cc1ccc(Br)cc1 [Example 76, (E)-9-Anthraceneethenyl-4-bromobenzylsulfone]
- cytotoxicity [1]: 50 to 60%
- cytotoxicity [2]: 40 to 50%
- cytotoxicity [3]: 50 to 60%
- cytotoxicity [4]: 40 to 50%

Structure (SMILES): O=S(=O)(/C=C/c1ccoc1)Cc1ccc(Cl)cc1 [Example 42, (E)-3-Furanethenyl-4-chlorobenzylsulfone]
- cytotoxicity [1]: > 80%
- cytotoxicity [2]: > 80%
- cytotoxicity [3]: > 80%
- cytotoxicity [4]: > 80%

Structure (SMILES): O=S(=O)(/C=C/c1cc(Br)cs1)Cc1ccc(Cl)cc1 [Example 14, (E)-4-Bromo-2-thiopheneethenyl-4-chlorobenzylsulfone]
- cytotoxicity [1]: 5 to 10%
- cytotoxicity [2]: 5 to 10%
- cytotoxicity [3]: 5 to 10%
- cytotoxicity [4]: 5 to 10%

Structure (SMILES): O=S(=O)(/C=C/c1ccsc1)Cc1ccc(Cl)c(Cl)c1 [Example 30, (E)-3-Thiopheneethenyl-3,4-dichlorobenzylsulfone]
- cytotoxicity [1]: 5 to 10%
- cytotoxicity [2]: 5 to 10%
- cytotoxicity [3]: 5 to 10%
- cytotoxicity [4]: 5 to 10%

Structure (SMILES): O=S(=O)(/C=C/c1ccccn1)Cc1ccc(Br)cc1 [Example 7, (E)-2-Pyridineethenyl-4-bromobenzylsulfone]
- cytotoxicity [1]: 5 to 10%
- cytotoxicity [2]: 5 to 10%
- cytotoxicity [3]: 5 to 10%
- cytotoxicity [4]: 5 to 10%

Structure (SMILES): O=[N+]([O-])c1cc(/C=C/S(=O)(=O)Cc2ccc(Cl)cc2Cl)cs1 [Example 57, (E)-2-Nitro-4-thiopheneethenyl-2,4-dichlorobenzylsulfone]
- cytotoxicity [1]: 5 to 10%
- cytotoxicity [2]: 10 to 15%
- cytotoxicity [3]: 10 to 15%
- cytotoxicity [4]: 5 to 10%

Structure (SMILES): O=S(=O)(/C=C/c1ccsc1)Cc1ccc(F)cc1 [Example 22, (E)-3-Thiopheneethenyl-4-fluorobenzylsulfone]
- cytotoxicity [1]: 5 to 10%
- cytotoxicity [2]: 5 to 10%
- cytotoxicity [3]: 5 to 10%
- cytotoxicity [4]: 5 to 10%

Structure (SMILES): O=S(=O)(/C=C/c1ccc(Br)cc1)Cc1cccc2ccccc12 [Example 70, (E)-4-Bromostyryl-1-(naphthylmethyl)sulfone]
- cytotoxicity [1]: 5 to 10%
- cytotoxicity [2]: 5 to 10%
- cytotoxicity [3]: 5 to 10%
- cytotoxicity [4]: 5 to 10%

Structure (SMILES): O=S(=O)(/C=C/c1ccoc1)Cc1ccc(F)cc1 [Example 41, (E)-3-Furanethenyl-4-fluorobenzylsulfone]
- cytotoxicity [1]: 5 to 10%
- cytotoxicity [2]: 5 to 10%
- cytotoxicity [3]: 5 to 10%
- cytotoxicity [4]: 5 to 10%

Structure (SMILES): O=[N+]([O-])c1ccccc1/C=C/S(=O)(=O)Cc1cccc2ccccc12 [Example 71, (E)-2-Nitrostyryl-1-(naphthylmethyl)sulfone]
- cytotoxicity [1]: 40 to 50%
- cytotoxicity [3]: 40 to 50%
